Values after ≈ are worked out from the molar mass of the structure shown.
Legend:
Assay type in all cases: functional
[1] = system: Mycobacterium tuberculosis; assay: Antibacterial activity against rifampicin-resistant Mycobacterium tuberculosis H37Rv after 18 hrs by agar plate dilution method
[2] = system: Mycobacterium tuberculosis variant bovis BCG; assay: Antibacterial activity against Mycobacterium bovis BCG Tokyo after 18 hrs by agar plate dilution method
[3] = system: Mycobacterium tuberculosis; assay: Antibacterial activity against isoniazid-resistant Mycobacterium tuberculosis H37Rv after 18 hrs by agar plate dilution method

Row | SMILES | MIC [1] | MIC [2] | MIC [3]
1 | NNC(=O)c1ccncc1 [ISONIAZID] | 0.05 µg/mL (≈ 0.365 µM) | 0.1 µg/mL (≈ 0.729 µM) | > 25 µg/mL
2 | C=CCN(C)CCCCCCCCOc1ccc(C(=O)c2ccc(Cl)cc2)c(O)c1 | 1.5 µg/mL (≈ 3.49 µM) | 3.1 µg/mL (≈ 7.21 µM) | 1.5 µg/mL (≈ 3.49 µM)
3 | CO[C@H]1/C=C/O[C@@]2(C)Oc3c(C)c(O)c4c(O)c(c(/C=N/N5CCN(C)CC5)c(O)c4c3C2=O)NC(=O)/C(C)=C\C=C\[C@H](C)[C@H](O)[C@@H](C)[C@@H](O)[C@@H](C)[C@H](OC(C)=O)[C@@H]1C [RIFAMPIN] | > 25 µg/mL | 0.1 µg/mL (≈ 0.122 µM) | 0.2 µg/mL (≈ 0.243 µM)

Source: ChEMBL document CHEMBL1148727, “Discovery of 1,4-dihydroxy-2-naphthoate [corrected] prenyltransferase inhibitors: new drug leads for multidrug-resistant gram-positive pathogens” (2007)
